biological target: Human plasma kallikrein (Homo sapiens (Human), UniProt P03952); test: In vitro plasma kallikrein inhibition assay (chromogenic substrate D-Pro-Phe-Arg-pNa, absorbance at 405 nm, IC50 determination); type: biochemical; conditions: not given
Sequence (P03952 391-638): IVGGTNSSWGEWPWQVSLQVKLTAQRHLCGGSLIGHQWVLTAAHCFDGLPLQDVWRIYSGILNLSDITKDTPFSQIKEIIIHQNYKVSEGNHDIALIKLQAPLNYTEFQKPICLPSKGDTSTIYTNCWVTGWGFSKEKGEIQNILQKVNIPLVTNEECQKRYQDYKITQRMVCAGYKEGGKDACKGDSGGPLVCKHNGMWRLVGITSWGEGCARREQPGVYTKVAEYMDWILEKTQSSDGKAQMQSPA
Sequence (P03952 20-390 partner): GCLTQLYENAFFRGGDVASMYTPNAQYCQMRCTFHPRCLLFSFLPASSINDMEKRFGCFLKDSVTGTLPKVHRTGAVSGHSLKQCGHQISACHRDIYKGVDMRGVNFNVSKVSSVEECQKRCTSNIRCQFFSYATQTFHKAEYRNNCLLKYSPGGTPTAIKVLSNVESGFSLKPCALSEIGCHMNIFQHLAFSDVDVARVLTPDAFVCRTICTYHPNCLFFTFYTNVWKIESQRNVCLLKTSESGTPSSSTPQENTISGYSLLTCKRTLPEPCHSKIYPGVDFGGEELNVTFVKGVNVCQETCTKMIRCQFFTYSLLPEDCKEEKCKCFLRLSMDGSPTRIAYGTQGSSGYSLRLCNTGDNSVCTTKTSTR

“(±)-N-[(6-amino-4-ethoxy- 2-methylpyridin-3-yl)methyl]-12- (2,4-difluorophenyl)-16-oxo-15- azatetracyclo[6.6.1.0^2,^7.0^9,1^4] hexadeca-2,4,6,9,11,13- hexaene-4-carboxamide and (±)-N-[(6-amino-4-ethoxy-2- methylpyridin-3-yl)methyl]- 11-(2,4-difluorophenyl)-16-oxo- 15-azatetracyclo[6.6.1.0^2,^7.0^9,1^4] hexadeca-2,4,6,9,11,13- hexaene-4-carboxamide [Example 163]” and `Cc1cc(N)nc(C)c1CNC(=O)c1ccc2c(c1)C1OC2c2ccc(Br)cc21` (centres unmarked) are within 0.2 log units of each other in “KLKB1 pIC50” value: 6.11 for the first, 6 for the second.

same assay, conditions: read-out: KLKB1 pIC50 (converted)

First: Nc1nccc2c(CNC(=O)c3ccc4c(c3)[C@@H]3O[C@H]4c4ccc(-c5ccccc5F)cc43)c(Cl)ccc12 (single isomer, unassigned) [Example 294]
Second: Nc1nccc2cc(Cl)c(CNC(=O)c3ccc4c(c3)[C@@H]3O[C@H]4c4ccc(-c5ccccc5F)cc43)cc12 (single isomer, unassigned) [Example 295]
The IC50 of the first is 480-fold lower: 20.9 nM for the first, 10000 nM for the second.

`Cc1ccc(-c2ccc3c(c2)[C@H]2O[C@@H]3c3ccc(C(=O)NCc4c(C)cc(N)nc4C)cc32)c(C#N)c1` (single isomer, unassigned) [Example 140] and `Cc1cc(N)nc(C)c1CNC(=O)c1ccc2c(c1)C1OC2c2ccc(-c3ccc(F)cc3C#N)cc21` (racemic) [Example 69] are within 1.5-fold of each other in IC50: 5.01 nM for the first, 6.31 nM for the second.

First: CCCc1cc(N)nc(C)c1CNC(=O)c1ccc2c(c1)C1OC2c2ccc(-c3ccc(F)cc3F)cc21 (racemic) [Example 172, (±)-N-[(6-amino-2-methyl-4-propylpyridin-3-yl)methyl]-12 (2,4-difluorophenyl)-15-oxatetracyclo[6.6.1.0^2,^7.0^9,1^4] pentadeca-2,4,6,9,11,13-hexaene-4-carboxamide]
Second: Cc1cc(N)nc(C)c1CNC(=O)c1ccc2c(c1)[C@@H]1O[C@H]2c2ccc(-c3ccc(F)cc3Cl)cc21 (single isomer, unassigned) [Example 176]
The IC50 of the first is 6.8-fold lower: 10 nM for the first, 67.6 nM for the second.

`N=C(N)c1ccc(CNC(=O)c2ccc3c(c2)[C@@H]2O[C@H]3c3ccc(-c4ccc(F)cc4)cc32)c(F)c1` (single isomer, unassigned) [Example 329] and `N=C(N)c1ccc(CNC(=O)c2ccc3c(c2)[C@@H]2O[C@H]3c3ccc(-c4ccc(F)cc4)cc32)cc1` (single isomer, unassigned) [Example 201] are the same in IC50: 1 nM for the first, 1 nM for the second.

First: Cc1cc(N)nc(C)c1CNC(=O)c1ccc2c(c1)C1OC2c2ccc(C[N+]3([O-])CCOCC3)cc21 (racemic) [Example 50]
Second: Cc1cc(N)nc(C)c1CNC(=O)c1ccc2c(c1)C1OC2c2cc3c(cc21)OCCO3 (racemic) [Example 342, (±)-N-[(6-amino-2,4-dimethylpyridin-3-yl)methyl]-5,8,19-trioxapentacyclo-[10.6.1.0^2,11.0^4,^9.0^13,1^8]nonadeca-2,4(9),10,13,15,17-hexaene-15-carboxamide]
The IC50 of the first is 6.5-fold higher: 3550 nM for the first, 550 nM for the second.

Going from `Nc1noc2ccc(NC(=O)c3ccc4c(c3)[C@@H]3O[C@H]4c4ccc(-c5ccc(F)cc5F)cc43)cc12` (single isomer, unassigned) [Example 245] to `Nc1nccc2ccc(CNC(=O)c3ccc4c(c3)C3OC4c4ccc(-c5ccc(F)cc5F)cc43)cc12` (racemic) [Example 154, (±)-N-[(1-aminoisoquinolin-7-yl)methyl]-12-(2,4-difluorophenyl)-15-oxatetracyclo [6.6.1.0^2,^7.0^9,1^4]-pentadeca-2,4,6,9,11,13-hexaene-4-carboxamide], the IC50 falls from 10000 nM to 3720 nM (2.7-fold).

Going from `N=C(N)c1cc(F)c(CNC(=O)c2ccc3c(c2)[C@@H]2O[C@H]3c3ccc(-c4nccs4)cc32)c(F)c1` (single isomer, unassigned) [Example 275] to `N=C(N)c1ccc(CNC(=O)c2ccc3c(c2)[C@@H]2O[C@H]3c3ccc(-c4ccc(F)cc4F)cc32)nc1` (single isomer, unassigned) [Example 332], the IC50 rises from 2 nM to 63.1 nM (32-fold).

First: N=C(N)c1ccc(CNC(=O)c2ccc3c(c2)[C@@H]2O[C@H]3c3ccc(-c4ccccc4F)cc32)cc1 (single isomer, unassigned) [Example 187]
Second: N=C(N)c1ccc(CNC(=O)c2ccc3c(c2)[C@@H]2O[C@H]3c3ccc(-n4cccn4)cc32)cc1 (single isomer, unassigned) [Example 305]
The IC50 of the first is 5.1-fold lower: 1.74 nM for the first, 8.91 nM for the second.

Compared with `Cc1ccc(-c2ccc3c(c2)C2OC3c3ccc(C(=O)NCc4c(C)cc(N)nc4C)cc32)c(F)c1F` (racemic) [Example 118, (±)-N-[(6-amino-2,4-dimethylpyridin-3-yl)-methyl]-12-(2,3-difluoro-4-methylphenyl)-15-oxatetracyclo[6.6.1.0^2,^7.0^9,1^4] pentadeca-2,4,6,9,11,13-hexaene-4-carboxamide], `Cc1cc(N)nc(C)c1CNC(=O)c1ccc2c(c1)[C@@H]1O[C@H]2c2ccc(-c3ccc(Cl)c(F)c3F)cc21` (single isomer, unassigned) [Example 145] is 3.7-fold lower in IC50: 64.6 nM for the first, 17.4 nM for the second.

`Cc1nc(N)cc(C(C)C)c1CNC(=O)c1ccc2c(c1)[C@@H]1O[C@H]2c2ccc(-c3cc[n+]([O-])cc3F)cc21` (single isomer, unassigned) [Example 265] and `Cc1cc(N)nc(C)c1CNC(=O)c1ccc2c(c1)[C@@H]1O[C@H]2c2ccc(-c3cccnc3C)cc21` (single isomer, unassigned) [Example 212] are within 1.5-fold of each other in IC50: 91.2 nM for the first, 70.8 nM for the second.

Going from `CC(=O)N1C2c3ccc(C(=O)NCc4c(C)cc(N)nc4C)cc3C1c1cc(-c3ccc(F)cc3F)ccc12` (racemic) [Example 209, (±)-15-acetyl-N-[(6-amino-2,4-dimethylpyridin-3-yl)methyl]-12-(2,4-difluorophenyl)-15-azatetracyclo[6.6.1.0^2,^7.0^9,1^4] pentadeca-2,4,6,9,11,13-hexaene-4-carboxamide and (±)-15-acetyl-N-[(6-amino-2,4-dimethylpyridin-3-yl)methyl]-11-(2,4-difluorophenyl)-15-azatetracyclo[6.6.1.0^2,^7.0^9,1^4] pentadeca-2,4,6,9,11,13-hexaene-4-carboxamide] to `Cc1cc(N)nc(C)c1CNC(=O)c1ccc2c(c1)C1OC2c2ccc(-c3cc(F)c(F)cc3F)cc21` (racemic) [Example 169, (±)-N-[(6-amino-2,4-dimethylpyridin-3-yl)-methyl]-12-(2,4,5-trifluorophenyl)-15-oxatetra-cyclo [6.6.1.0^2,^7.0^9,1^4]pentadeca-2,4,6,9,11,13-hexaene-4-carboxamide], the IC50 falls from 3470 nM to 34.7 nM (100-fold).

First: Cc1cc(N)nc(C)c1CNC(=O)c1ccc2c(c1)C1OC2c2cc(C#N)c(C#N)cc21 (racemic) [Example 326, (±)-N-((6-amino-2,4-dimethylpyridin-3-yl)methyl]-11,12-dicyano-15-oxatetracyclo-[6.6.1.0^2,^7.0^9,1^4]pentadeca-2,4,6,9,11,13-hexaene-4-carboxamide]
Second: Cc1cc(N)nc(C)c1CNC(=O)c1ccc2c(c1)C1OC2c2cc(Nc3ccnn3C)ccc21 (racemic) [Example 54]
The IC50 of the first is 1.9-fold higher: 851 nM for the first, 457 nM for the second.

Going from `COc1ccc(-n2cnnn2)c(CNC(=O)c2ccc3c(c2)C2OC3c3ccc(-c4ccc(F)cc4F)cc32)c1F` (racemic) [Example 129, (±)-12-(2,4-difluorophenyl)-N-{[2-fluoro-3-methoxy-6-(1H-1,2,3,4-tetrazol-1-yl)phenyl]-methyl}-15-oxatetracyclo [6.6.1.0^2,^7.0^9,1^4]-pentadeca-2,4,6,9,11,13-hexaene-4-carboxamide] to `Cc1cc(C(=N)N)ccc1CNC(=O)c1ccc2c(c1)[C@@H]1O[C@H]2c2ccc(-c3ccc(F)cc3F)cc21` (single isomer, unassigned) [Example 306], the IC50 falls from 234 nM to 1 nM (230-fold).

Going from `Cc1cc(N)nc(C)c1CNC(=O)c1ccc2c(c1)C1OC2c2ccc(-c3cccc(S(C)(=O)=O)c3)cc21` (racemic) [Example 128, (±)-N-[(6-amino-2,4-dimethylpyridin-3-yl)-methyl]-12-(3-methanesulfonylphenyl)-15-oxatetracyclo[6.6.1.0^2,^7.0^9,1^4] pentadeca-2,4,6,9,11,13 hexaene-4-carboxamide] to `Cc1cc(N)nc(C)c1CNC(=O)c1ccc2c(c1)[C@@H]1O[C@H]2c2cc(Oc3cccc(F)c3)ccc21` (single isomer, unassigned) [Example 184], the IC50 falls from 933 nM to 75.9 nM (12-fold).

Going from `CCOc1cc(N)nc(C)c1CNC(=O)c1ccc2c(c1)C1OC2c2ccc(Cn3cccn3)cc21` (racemic) [Example 133, (±)-N-[(6-amino-4-ethoxy-2-methylpyridin-3-yl)methyl]-12-[(1H-pyrazol-1-yl)methyl]-15-oxatetracyclo[6.6.1.0^2,^7.0^9,1^4] pentadeca-2,4,6,9,11,13-hexaene-4-carboxamide] to `CCCN(c1cccc(F)c1)c1ccc2c(c1)[C@H]1O[C@@H]2c2ccc(C(=O)NCc3c(C)cc(N)nc3C)cc21` (single isomer, unassigned) [Example 250], the IC50 rises from 11 nM to 33.1 nM (3-fold).

Compared with `N=C(N)c1ccc(CNC(=O)c2ccc3c(c2)[C@@H]2O[C@H]3c3ccc(C4CC4)cc32)nc1` (single isomer, unassigned) [Example 327], `N=C(N)c1ccc(CNC(=O)c2ccc3c(c2)[C@@H]2O[C@H]3c3ccc(-c4ccc(F)cc4F)cc32)cn1` (single isomer, unassigned) [Example 268] is 85-fold lower in IC50: 427 nM for the first, 5.01 nM for the second.

Going from `Nc1cc(CNC(=O)c2ccc3c(c2)C2OC3c3ccc(-c4ccc(F)cc4F)cc32)ccn1` (racemic) [Example 168, (±)-N-[(2-aminopyridin-4-yl)methyl]-12-(2,4-difluorophenyl)-15-oxatetracyclo[6.6.1.0^2,^7.0^9,1^4]-pentadeca-2,4,6,9,11,13-hexaene-4-carboxamide] to `O=C(NCc1ccc(-c2noc(=O)[nH]2)cc1)c1ccc2c(c1)[C@@H]1O[C@H]2c2ccc(-c3ccc(F)cc3F)cc21` (single isomer, unassigned) [Example 270], the IC50 rises from 20000 nM to 100000 nM (5-fold).

First: Nc1cc(C2CC2)c(CNC(=O)c2ccc3c(c2)[C@@H]2O[C@H]3c3ccc(-c4ccc(F)cc4F)cc32)c(C2CC2)n1 (single isomer, unassigned) [Example 257]
Second: O=C(N[C@@H]1CCNC1)c1ccc2c(c1)[C@@H]1O[C@H]2c2ccc(-c3ccc(F)cc3F)cc21 (single isomer, unassigned) [Example 324]
The IC50 of the first is 2-fold higher: 200000 nM for the first, 100000 nM for the second.
